Experimental data as given in patent US20240299431A1, “NEW SYNTHETIC AGONISTS OF TLR4 RECEPTOR” (UNIVERSITÀ DEGLI STUDI DI MILANO - BICOCCA, priority 2021, published 2024).
Entries after “also recorded” stand apart in the source; their conditions may differ. Where two headings read alike, the source gives them in different places.

What was measured:
[1] = target: T1, human TLR4 (Homo sapiens, UniProt O00206+Q9Y6Y9); experiment: Inhibition of LPS-induced SEAP production in HEK-Blue hTLR4 cells (antagonism); assay type: cell-based
T1 construct: host or cells: HEK-Blue hTLR4 (HEK293-derived)
T1 sequence (O00206 24-839): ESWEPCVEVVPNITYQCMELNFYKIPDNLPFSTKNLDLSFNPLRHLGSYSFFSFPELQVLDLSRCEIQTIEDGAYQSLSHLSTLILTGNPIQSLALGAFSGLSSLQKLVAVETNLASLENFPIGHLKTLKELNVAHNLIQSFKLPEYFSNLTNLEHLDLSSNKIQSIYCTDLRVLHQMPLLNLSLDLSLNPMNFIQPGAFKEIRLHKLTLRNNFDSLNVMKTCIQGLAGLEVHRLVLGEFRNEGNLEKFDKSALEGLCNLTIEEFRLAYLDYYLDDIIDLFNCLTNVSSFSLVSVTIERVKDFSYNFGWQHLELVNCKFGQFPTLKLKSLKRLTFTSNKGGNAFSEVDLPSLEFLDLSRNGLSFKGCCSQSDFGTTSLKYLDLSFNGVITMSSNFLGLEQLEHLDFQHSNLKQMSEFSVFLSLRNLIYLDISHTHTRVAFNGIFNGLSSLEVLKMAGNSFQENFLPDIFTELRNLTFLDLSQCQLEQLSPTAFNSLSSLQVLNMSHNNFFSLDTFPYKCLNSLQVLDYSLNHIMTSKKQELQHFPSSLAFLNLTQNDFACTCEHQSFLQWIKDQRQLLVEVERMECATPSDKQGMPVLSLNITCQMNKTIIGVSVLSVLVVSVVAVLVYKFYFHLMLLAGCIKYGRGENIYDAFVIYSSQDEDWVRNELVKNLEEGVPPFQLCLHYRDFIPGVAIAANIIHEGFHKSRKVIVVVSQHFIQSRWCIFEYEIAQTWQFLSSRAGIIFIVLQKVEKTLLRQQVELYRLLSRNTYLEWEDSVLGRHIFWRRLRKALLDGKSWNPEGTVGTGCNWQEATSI
T1 sequence (Q9Y6Y9 17-160 limits assumed): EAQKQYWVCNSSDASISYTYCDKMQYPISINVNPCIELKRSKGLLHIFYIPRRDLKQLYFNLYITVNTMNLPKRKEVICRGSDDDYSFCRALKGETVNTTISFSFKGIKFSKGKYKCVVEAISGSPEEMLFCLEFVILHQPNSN

[2] = test system: HEK-Blue Null cells; experiment: HEK-Blue Null cells SEAP reporter (lack the LPS receptors); assay type: cell-based, human
[3] = Pilot in vivo toxicity of adjuvants in mice; design: species or system C57Bl/6 mice; settings: 10 μg subcutaneously, over 7 days
Description: (§1) The ability of FP11 and FP112 to induce immune responses in vivo was compared to MPLA by evaluating antibody production in C57Bl/6 mice immunized with chicken ovalbumin (OVA) as a model antigen. Has been first evaluated the toxicity of FPs in a pilot experiment in which mice were injected subcutaneously with 10 μg of the FP11 and FP112. […] Next, mice were immunized with the tested adjuvants mixed with ovalbumin (OVA). The induction of antibody was evaluated 21 days post immunization.

[4] = test system: C57Bl/6 mice immunized with chicken ovalbumin (OVA); experiment: OVA immunization, adjuvant activity (anti-OVA total IgG); assay type: in vivo; settings: for anti-OVA total IgG after prime immunization compared to MPLA-OVA immunized animals / anti-OVA total IgG after prime immunization compared to OVA-immunized control: 21 days post immunization
Description: as §1

[5] = target: T2, human TLR2 (Homo sapiens, UniProt O60603); experiment: HEK-Blue hTLR2 SEAP reporter assay; assay type: cell-based; settings: HEK-Blue hTLR2 cells, compounds 0.1-25 μM; PAM2CSK4 positive control (1 ng/mL)
T2 construct: host or cells: HEK-Blue hTLR2 (HEK reporter cell line)
T2 sequence (O60603 21-784): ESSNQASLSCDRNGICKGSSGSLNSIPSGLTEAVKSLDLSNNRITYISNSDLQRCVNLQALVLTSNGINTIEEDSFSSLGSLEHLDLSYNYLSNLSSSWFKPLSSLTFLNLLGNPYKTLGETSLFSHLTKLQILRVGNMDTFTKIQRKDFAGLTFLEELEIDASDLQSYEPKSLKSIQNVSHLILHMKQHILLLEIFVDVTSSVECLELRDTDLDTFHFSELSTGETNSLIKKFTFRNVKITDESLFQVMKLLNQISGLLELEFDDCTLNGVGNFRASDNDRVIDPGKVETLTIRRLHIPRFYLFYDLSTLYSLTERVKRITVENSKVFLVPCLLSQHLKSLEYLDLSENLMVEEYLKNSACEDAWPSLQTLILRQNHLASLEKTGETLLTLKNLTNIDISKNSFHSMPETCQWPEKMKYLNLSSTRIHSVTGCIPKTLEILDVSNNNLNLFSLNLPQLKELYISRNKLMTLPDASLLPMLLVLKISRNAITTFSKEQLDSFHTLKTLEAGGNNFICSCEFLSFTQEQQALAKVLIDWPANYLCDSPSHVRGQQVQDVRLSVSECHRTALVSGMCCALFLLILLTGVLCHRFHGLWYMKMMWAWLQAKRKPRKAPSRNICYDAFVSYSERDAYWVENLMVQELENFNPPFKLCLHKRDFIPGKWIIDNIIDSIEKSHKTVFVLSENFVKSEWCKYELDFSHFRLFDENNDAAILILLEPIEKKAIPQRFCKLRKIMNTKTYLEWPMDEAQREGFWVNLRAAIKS
Text: (§2) HEK-BIue™ hTLR4 and HEK-BIue™ hTLR2 (InvivoGen) are cell lines designed to study the activation of human TLR4 and TLR2 receptors, respectively, by monitoring the activation of transcription factors NF-kB and AP-1. Stimulation with TLR4 ligands (in the case of HEK-Blue hTLR4) or with TLR2 ligands (in the case of HEK-Blue hTLR2) activates NF-kB and AP-1, inducing the production and release of the SEAP reporter gene (phosphatase secreted embryonic alkaline) in the extracellular environment. The analysis of the reporter gene was performed using the QUANTI-Blue™ colorimetric assay (InvivoGen), a substrate of SEAP, which generates a chromogenic product whose absorbance is read at 630 nm. […] The molecules were subsequently tested on the HEK-Blue hTLR2 cell line with the aim of excluding the activation of this receptor. In this regard, HEK-Blue hTLR2 cells were treated with the same compounds and at the same concentrations as the tests conducted previously and the compound PAM2CSK4 was used as a positive control for TLR2 activation.

[6] = test system: NF-kB; experiment: THP-1-X Blue macrophages, NF-kB/AP-1 SEAP reporter; assay type: cell-based, human
Description: (§3) THP-1-X BIue™ cell lines, monocytes differentiated into macrophages following treatment with PMA 100 ng/mL, and RAW-BIue™ were used. Similarly to HEK-Blue cells, THP-1 X-Blue and […] stably express the SEAP reporter gene, under the control of transcription factors NF-kB and AP-1. The cells were treated as previously described.
FP200 activity was then assessed on human monocytes cell line THP-1-X-Blues, described before. Cells were treated with compounds FP11, FP112, FP20, FP200 and FP21 in increasing concentrations (0.1, 1, 10, 20 μM) and using MPLA (0.1-1-10 μM) and S-LPS (100 ng/mL) as a reference and positive receptor activation control, respectively.
Compound FP207, functionalized with MPA, was tested in vitro on human THP-1-XBlue cells to evaluate the NF-kB activation.

[7] = test system: NF-kB; experiment: RAW-Blue murine macrophages, NF-kB/AP-1 SEAP reporter; assay type: cell-based; settings: RAW-blue line
Description: as §3

[8] = test system: THP-1-X-Blue cells; experiment: MTT viability assay on differentiated THP-1-X-Blue cells; assay type: cell-based, human; settings: THP-1-X-Blue macrophages; for cell viability at the highest concentration tested: 50 μM; for toxicity (MTT viability): 0.1-50 μM
Description: (§4) The toxicity of the compounds was evaluated by MTT viability assay (3-(4,5-dimethylthiazol-2-yl)-2,5-diphenyltetrazolium bromide).
A preliminary test to investigate the toxicity of this functionalized compound was performed, even though without a triplicate.

[9] = test system: RAW-Blue; experiment: MTT viability assay on RAW-Blue cells; assay type: cell-based; settings: mouse macrophage line RAW-Blue
Description: as §4

[10] = target: T1, human TLR4; experiment: HEK-Blue hTLR4 SEAP reporter assay (agonist activity, QUANTI-Blue); assay type: cell-based; settings: HEK-Blue hTLR4 cells, 0.1-25 μM, 18 hours, normalized to LPS
Text: as §2, with “nm. The agonist activity of the molecules was tested by treating HEK-Blue hTLR4 cells for 18 hours with increasing concentrations of the compounds (0.1-1-10-25 μM) and using MPLA (0.1-1-10 μM) and S-LPS (100 ng/mL) as a reference and positive receptor activation control, respectively.” for “nm.”, “In this regard, HEK-Blue hTLR2 cells were treated with the same compounds and at the same concentrations as the tests conducted previously and the compound PAM2CSK4 was used as a positive control for TLR2 activation.” left out
The ability of FP molecules to activate human TLR4 was assessed using HEK-Blue hTLR4 cells. […]

[11] = target: T1, human TLR4; settings: HEK-Blue hTLR4 cells, Experiment 2 of WO2019/092572; cited from earlier work
[12] = test system: Hek-Blue, Raw-Blue, THP-1 cells; experiment: In vitro tests on Hek-Blue, Raw-Blue and THP-1 cells (summary statements); assay type: cell-based
[13] = test system: Hek-Blue, Raw-Blue, THP-1 cells; settings: prior art section, cited from earlier work
[14] = test system: IL-1α, IL-1β, IL-6, TNF-α and IFNβ; settings: cited from earlier work
[15] = test system: TLR4; settings: both murine and human cells; cited from earlier work
[16] = test system: interleukin-6 (IL-6), interleukin-8 (IL-8) and TNF-α; settings: murine macrophages and neutrophil granulocytes; cited from earlier work
[17] = test system: Escherichia coli; settings: one dose one day prior to microbial inoculation; cited from earlier work
[18] = tumour-affected patients; cited from earlier work

## CCCCCCCCCCCCCC(=O)NC1C(OC(=O)CCCCCCCCCCCCC)[C@H](OC(=O)CCCCCCCCCCCCC)C(CO)O[C@H]1OP(=O)(O)O (some centres unmarked) [FP11]
[1]
  inhibition of LPS-induced SEAP production (TLR4 antagonistic activity): did not inhibit LPS-induced SEAP production
[2]
  activity on HEK-Blue Null cells: lack of activity
[3]
  adverse effect on mice (local response at injection site, weight, alertness): no obvious adverse effect
[4]
  anti-OVA total IgG after prime immunization compared to MPLA-OVA immunized animals: significantly lower levels
  anti-OVA total IgG after prime immunization compared to OVA-immunized control: marginally higher levels

## CCCCCCCCCCCC(=O)NC1C(OC(=O)CCCCCCCCCCC)OC(CO)C(OP(=O)([O-])[O-])C1OC(=O)CCCCCCCCCCC.[Na+].[Na+] (centres unmarked) [FP20]
[5]
  activation of TLR2 (SEAP): did not produce any activation
[6]
  concentration from which the compounds activate significantly: 10 µM
[7]
  lowest concentration tested at which the compounds are active: 0.1 µM
[8]
  cell viability at the highest concentration tested: decrease in cell viability
  toxicity (MTT viability): non-toxic
[9]; 50 μM
  toxicity (MTT viability): increase in the toxicity

## CCCCCCCCCCCCCC(=O)OC1OC(CO)C(OP(=O)([O-])[O-])C(OC(=O)CCCCCCCCCCCCC)C1NC(=O)CCCCCCCCCCC.[Na+].[Na+] (centres unmarked) [FP21]
[5]
  activation of TLR2 (SEAP): did not produce any activation
[6]
  concentration from which the compounds activate significantly: 10 µM
[7]
  lowest concentration tested at which the compounds are active: 0.1 µM
[8]
  toxicity (MTT viability): non-toxic
[9]; 50 μM
  toxicity (MTT viability): increase in the toxicity

## CCCCCCCCCC(=O)NC1C(OC(=O)CCCCCCCCC)OC(CO)C(OP(=O)([O-])[O-])C1OC(=O)CCCCCCCCC.[Na+].[Na+] (centres unmarked) [FP22]
[8]
  toxicity (MTT viability): non-toxic
[9]; 50 μM
  toxicity (MTT viability): increase in the toxicity

## CCCCCCCCCCCCCC(=O)NC1C(OC(=O)CCCCCCCCCCCCC)OC(CO)C(OP(=O)([O-])[O-])C1OC(=O)CCCCCCCCCCCCC.[Na+].[Na+] (centres unmarked) [FP23]
[5]
  activation of TLR2 (SEAP): did not produce any activation
[7]
  lowest concentration tested at which the compounds are active: 0.1 µM
[8]
  cell viability at the highest concentration tested: decrease in cell viability
  toxicity (MTT viability): non-toxic
[9]; 25 μM
  toxicity (MTT viability): show toxicity
[9]; 50 μM
  toxicity (MTT viability): increase in the toxicity

## CCCCCCCCCCCC(=O)NC1C(OC(=O)CCCCCCCCC)OC(CO)C(OP(=O)([O-])[O-])C1OC(=O)CCCCCCCCC.[Na+].[Na+] (centres unmarked) [FP24]
[5]
  activation of TLR2 (SEAP): did not produce any activation
[6]
  concentration from which the compounds activate significantly: 10 µM
[7]
  lowest concentration tested at which the compounds are active: 0.1 µM
[8]
  toxicity (MTT viability): non-toxic
[9]; 50 μM
  toxicity (MTT viability): increase in the toxicity

## CCCCCCCCCCCCCC(=O)NC1[C@H](OP(=O)(O)O)OC(COP(=O)(O)O)[C@@H](OC(=O)CCCCCCCCCCCCC)[C@@H]1OC(=O)CCCCCCCCCCCCC (some centres unmarked) [FP111]
[10]
  activation of TLR4 (SEAP release, NF-kB and AP-1): inactive
[1]
  inhibition of LPS-induced SEAP production (TLR4 antagonistic activity): did not inhibit LPS-induced SEAP production
[11]
  TLR4 agonist activity: completely inactive

## CCCCCCCCCCCC(=O)NC1C(OP(=O)(O)O)OC(CO)C(OC(=O)CCCCCCCCCCC)C1OC(=O)CCCCCCCCCCC (centres unmarked) [FP112]
[1]
  inhibition of LPS-induced SEAP production (TLR4 antagonistic activity): did not inhibit LPS-induced SEAP production
[2]
  activity on HEK-Blue Null cells: lack of activity
[3]
  adverse effect on mice (local response at injection site, weight, alertness): no collateral damage; also recorded: no obvious adverse effect
[4]
  anti-OVA total IgG after prime immunization compared to MPLA-OVA immunized animals: significantly lower levels
  anti-OVA total IgG after prime immunization compared to OVA-immunized control: marginally higher levels
[4]; boost on day 22, examined 14 days later
  ova-specific IgG levels after boost immunization: higher than those in the FP11-immunized group
[4]; compared to FP11 and MPLA
  effectiveness/potency as vaccine adjuvant in vivo: comparable to that of MPLA; also recorded: more effective adjuvant in vivo than FP11 and has a potency comparable or even greater than MPLA
[12]
  toxicity in vitro: low toxicity
[12]; 10 μM
  pro-inflammatory activity: good pro-inflammatory activy
[13]; 10 μM
  pro-inflammatory activity: good pro-inflammatory activity
[13]
  toxicity in vitro: low toxicity
[14]
  release of proinflammatory cytokines: able to stimulate the release of numerous proinflammatory cytokines

## CCCCCCCCCCCCCC(=O)OC(CCCCCCCCCCC)CC(=O)O[C@H]1[C@H](OP(=O)(O)O)[C@@H](CO)OC(O)[C@@H]1NC(=O)CC(O)CCCCCCCCCCC (some centres unmarked) [GLA60]
[15]
  stimulation of TLR4-dependent production of cytokines TNF-α and IL-6: active

## CCCCCCCCCCC[C@@H](O)CC(=O)N[C@H]1[C@@H](OP(=O)(O)O)O[C@H](CO)[C@@H](OC(=O)C[C@H](O)CCCCCCCCCCC)[C@@H]1OC(=O)C[C@H](O)CCCCCCCCCCC [SDZ MRL 953]
[16]
  stimulation of release of inflammatory cytokines: potent activity
[17]
  effect on curative effects of antibiotics: dramatically increased the curative effects of antibiotics administered
[18]
  granulocyte counts and serum cytokine levels: increases granulocyte counts and serum levels of G-CSF and interleukin-6 (IL-6), but not of pro-inflammatory cytokines TNF-α, IL-1b, and IL-8
  safety and tolerability in humans: safe and of excellent tolerability

## PAM2CSK4
[5]
  activation of TLR2 (SEAP): strong activation of TLR2
